Assay results taken from paper PMC8413292, “Small-molecule polymerase inhibitor protects non-human primates from measles and reduces shedding” (Nature Communications, 2021).
Several values for one entry are separate records, joined by “and”; a condition that tells them apart may be missing. Identical values can stand only once.

How the values were obtained:
[1] = test system: MV/FrankfurtMain.DEU/17.11 (genotype D8); experiment: Throat swab virus titers (shed virus, limited dilution); type: in vivo, squirrel monkeys (Saimiri sciureus)
Protocol: White blood cell counts, viral load quantification in PBMCs, and quantification of neutralizing antibody titers were performed as follows: for white blood cell counts, blood was diluted 1:100 in 3% acetic acid and cells were counted using a Neubauer chamber. For viral load quantification in PBMCs, blood was centrifuged at 3000 rpm for 15 min and serum was frozen at −20 °C until further use. Red blood cell lysis was performed and the remaining PBMCs were counted using a Neubauer chamber. Viral titers in PBMCs were quantified in quadruplicates using limited dilution method and calculated as TCID50/10^6 PBMCs. Neutralizing antibody titers were quantified by incubating MeV with 2-fold serial dilutions of the respective serum for 20 min at room temperature in quadruplicates. Vero/hSLAM cells were added and incubated for 3 days at 37 °C. Neutralizing antibody titers are expressed as the reciprocal of the highest serum dilution showing no signs of infection. For virus titration from throat swabs, swabs were placed in 150 μl DMEM with 3% penicillin/streptomycin and the titer was quantified by limited dilution method.

MeV N gene RNA = experiment: Quantitative RT-PCR of MeV N-gene RNA in lymph nodes; type: in vivo; conditions: for MeV N-gene RNA levels in lymph nodes versus untreated: 21 days post-infection
Protocol: Organs (21 days post-infection) and PBMCs (twice a week) were frozen in RNAlater (Qiagen) at −80 °C until further processing. For the deceased animal, organs were frozen in RNAlater at the day of death. Lymph nodes were thawed on ice, transferred to TRIzol (ambion life technologies) and homogenized using a tissue homogenizer. Total RNA of lymph nodes and PBMCs was extracted following the TRIzol manufacturer’s protocol. RNA (1000 ng for lymph nodes; 110 ng for PBMCs) was then subjected to reverse transcription using random hexamer primers and Superscript III reverse transcriptase in accordance with the manufacturer’s protocols. Subsequent quantitative PCR (qPCR) was carried out using primer pairs specific for a fragment in the MeV N gene[23] or GAPDH gene(Supplementary Table 2) and the PowerUp SYBR Green Master Mix (Thermo Fisher Scientific) in an Applied Biosystems 7500 Real-Time PCR system. Samples were normalized for GAPDH. The comparative (ΔΔCt) Ct method was applied to determine relative amounts of N-encoding RNA present in samples from treated animals compared to those obtained from untreated control animals (lymph nodes) or compared to those obtained from untreated control animals on day 7 post-infection (peak PBMC virus titer).

For `Cn1nc(C(F)(F)F)cc1C(=O)Nc1ccc(S(=O)(=O)N2CCCC[C@H]2CCN2CCOCC2)cc1` [ERDRP-0519], the “drop of shed virus titers (throat swab) compared to untreated animals” value ([1]; day 7 therapeutic group, within 72 h of treatment initiation) was “dropped significantly (p = 0.0199) by two orders of magnitude”, the “Swab Titration, group mean (Mean 2)” value ([1]; prophylactic, Row 1 (0 d)) was 0 log10(TCID50/ml) and the “Swab Titration, group mean (Mean 2)” value ([1]; prophylactic, Row 2 (3 d)) was 0 log10(TCID50/ml). For the same compound, the “Swab Titration, group mean (Mean 2)” value ([1]; prophylactic, Row 3 (7 d)) was 0 log10(TCID50/ml), the “Swab Titration, group mean (Mean 2)” value ([1]; prophylactic, Row 4 (10 d)) was 0.4498 log10(TCID50/ml) and the “Swab Titration, group mean (Mean 2)” value ([1]; prophylactic, Row 5 (14 d)) was 0 log10(TCID50/ml). The “Swab Titration, group mean (Mean 2)” value ([1]; prophylactic, Row 6 (17 d)) was 0.1165 log10(TCID50/ml), the “Viral titers (throat swab), individual animals” value (from here on “Viral titers (throat swab)”) ([1]; prophylactic, time 10 d) was 2.699 log10(TCID50/ml) and the “Viral titers (throat swab)” value ([1]; prophylactic, time 17 d) was 0.699 log10(TCID50/ml). For the same compound, the “Swab Titration, group mean (Mean 2)” value ([1]; therapeutic (d3), Row 1 (0 d)) was 0 log10(TCID50/ml), the “Swab Titration, group mean (Mean 2)” value ([1]; therapeutic (d3), Row 2 (3 d)) was 0 log10(TCID50/ml) and the “Swab Titration, group mean (Mean 2)” value ([1]; therapeutic (d3), Row 3 (7 d)) was 0.7332 log10(TCID50/ml). For the same compound, the “Swab Titration, group mean (Mean 2)” value ([1]; therapeutic (d3), Row 4 (10 d)) was 1.153 log10(TCID50/ml), the “Swab Titration, group mean (Mean 2)” value ([1]; therapeutic (d3), Row 5 (14 d)) was 0 log10(TCID50/ml) and the “Swab Titration, group mean (Mean 2)” value ([1]; therapeutic (d3), Row 6 (17 d)) was 0 log10(TCID50/ml). The “Viral titers (throat swab)” value ([1]; therapeutic (d3), time 7 d) was 0.699 log10(TCID50/ml) and 2 log10(TCID50/ml) and 1.699 log10(TCID50/ml), the “Viral titers (throat swab)” value ([1]; therapeutic (d3), time 10 d) was 1.477 log10(TCID50/ml) (3×) and 2.477 log10(TCID50/ml) and the “Swab Titration, group mean (Mean 2)” value ([1]; therapeutic (d7), Row 1 (0 d)) was 0 log10(TCID50/ml). The “Swab Titration, group mean (Mean 2)” value ([1]; therapeutic (d7), Row 2 (3 d)) was 0 log10(TCID50/ml), the “Swab Titration, group mean (Mean 2)” value ([1]; therapeutic (d7), Row 3 (7 d)) was 2.207 log10(TCID50/ml) and the “Swab Titration, group mean (Mean 2)” value ([1]; therapeutic (d7), Row 4 (10 d)) was 0.9798 log10(TCID50/ml). The “Swab Titration, group mean (Mean 2)” value ([1]; therapeutic (d7), Row 5 (14 d)) was 0 log10(TCID50/ml), the “Swab Titration, group mean (Mean 2)” value ([1]; therapeutic (d7), Row 6 (17 d)) was 0 log10(TCID50/ml) and the “Viral titers (throat swab)” value ([1]; therapeutic (d7), time 7 d) was 3.477 log10(TCID50/ml) and 2.699 log10(TCID50/ml) (2×) and 2.176 log10(TCID50/ml) (2×). For the same compound, the “Viral titers (throat swab)” value ([1]; therapeutic (d7), time 10 d) was 1.699 log10(TCID50/ml) and 1.477 log10(TCID50/ml) and 2.699 log10(TCID50/ml), the “Swab Titration, Mean Diff, untreated vs. treated” value ([1]; untreated vs. prophylactic, Row 1 (0 d)) was 0 log10(TCID50/ml) and the “Swab Titration, Mean Diff, untreated vs. treated” value ([1]; untreated vs. prophylactic, Row 2 (3 d)) was 0 log10(TCID50/ml). The “Swab Titration, Mean Diff, untreated vs. treated” value ([1]; untreated vs. prophylactic, Row 3 (7 d)) was 1.98 log10(TCID50/ml), the “Swab Titration, Mean Diff, untreated vs. treated” value ([1]; untreated vs. prophylactic, Row 4 (10 d)) was 2.423 log10(TCID50/ml) and the “Swab Titration, Mean Diff, untreated vs. treated” value ([1]; untreated vs. prophylactic, Row 5 (14 d)) was 0 log10(TCID50/ml). The “Swab Titration, Mean Diff, untreated vs. treated” value ([1]; untreated vs. prophylactic, Row 6 (17 d)) was 0.1302 log10(TCID50/ml), the “Swab Titration, Mean Diff, untreated vs. treated” value ([1]; untreated vs. therapeutic (d3), Row 1 (0 d)) was 0 log10(TCID50/ml) and the “Swab Titration, Mean Diff, untreated vs. treated” value ([1]; untreated vs. therapeutic (d3), Row 2 (3 d)) was 0 log10(TCID50/ml). The “Swab Titration, Mean Diff, untreated vs. treated” value ([1]; untreated vs. therapeutic (d3), Row 3 (7 d)) was 1.247 log10(TCID50/ml), the “Swab Titration, Mean Diff, untreated vs. treated” value ([1]; untreated vs. therapeutic (d3), Row 4 (10 d)) was 1.72 log10(TCID50/ml) and the “Swab Titration, Mean Diff, untreated vs. treated” value ([1]; untreated vs. therapeutic (d3), Row 5 (14 d)) was 0 log10(TCID50/ml). The “Swab Titration, Mean Diff, untreated vs. treated” value ([1]; untreated vs. therapeutic (d3), Row 6 (17 d)) was 0.2467 log10(TCID50/ml), the “Swab Titration, Mean Diff, untreated vs. treated” value ([1]; untreated vs. therapeutic (d7), Row 1 (0 d)) was 0 log10(TCID50/ml) and the “Swab Titration, Mean Diff, untreated vs. treated” value ([1]; untreated vs. therapeutic (d7), Row 2 (3 d)) was 0 log10(TCID50/ml). For the same compound, the “Swab Titration, Mean Diff, untreated vs. treated” value ([1]; untreated vs. therapeutic (d7), Row 3 (7 d)) was -0.2268 log10(TCID50/ml), the “Swab Titration, Mean Diff, untreated vs. treated” value ([1]; untreated vs. therapeutic (d7), Row 4 (10 d)) was 1.893 log10(TCID50/ml) and the “Swab Titration, Mean Diff, untreated vs. treated” value ([1]; untreated vs. therapeutic (d7), Row 5 (14 d)) was 0 log10(TCID50/ml). The “Swab Titration, Mean Diff, untreated vs. treated” value ([1]; untreated vs. therapeutic (d7), Row 6 (17 d)) was 0.2467 log10(TCID50/ml), the “Lymph node fold difference, group mean (Mean 2)” value (MeV N gene RNA; prophylactic) was 0.06859 and the “fold difference (Lymph node MeV N RNA), individual animals” value (“fold difference (Lymph node MeV N RNA)” below) (MeV N gene RNA; prophylactic) was 0.002631 and 0.0102 and 0.1018 and 0.01292 and 0.2776 and 0.00638. The “MeV N-gene RNA levels in lymph nodes versus untreated” value (MeV N gene RNA; prophylactic group, p = 0.0295) was “significantly decreased”, the “Lymph node fold difference, group mean (Mean 2)” value (MeV N gene RNA; therapeutic (d3)) was 0.1137 and the “fold difference (Lymph node MeV N RNA)” value (MeV N gene RNA; therapeutic (d3)) was 0.5644 and 0.005805 and 0.02288 and 0.01111 and 0.0007117 and 0.07727. The “Lymph node fold difference, group mean (Mean 2)” value (MeV N gene RNA; therapeutic (d7)) was 0.7008, the “fold difference (Lymph node MeV N RNA)” value (MeV N gene RNA; therapeutic (d7)) was 1.441 and 0.8274 and 0.2474 and 0.8349 and 0.2786 and 0.5749 and the “MeV N-gene RNA levels in lymph nodes versus untreated” value (MeV N gene RNA; therapeutic day 3 group, p = 0.0346) was “significantly decreased”. The “Lymph node fold difference, Mean Diff,” value (MeV N gene RNA; untreated vs. prophylactic) was 1.828, the “Lymph node fold difference, Mean Diff,” value (MeV N gene RNA; untreated vs. therapeutic (d3)) was 1.783 and the “Lymph node fold difference, Mean Diff,” value (MeV N gene RNA; untreated vs. therapeutic (d7)) was 1.196.
